According to patent publication US20240300902A1, “NOVEL TRANSGLUTAMINASE 2 INHIBITOR AND USE THEREOF” (MD BIOLAB CO., LTD., priority 2021, published 2024):
Where two headings read alike, the source gives them in different places.

What was measured:
[1] = system: ACHN cancer cell population; test: Sulforhodamine B (SRB) assay; format: cell-based, Human; settings: for GI50 / SRB measurement (percentage decrease in the control value of SRB): 48 hours; for GI50: read-out: GI50 (50% growth inhibition); for SRB measurement (percentage decrease in the control value of SRB): concentration of 10^−5 M; for decrease in cell counts: concentrations 10^−6 M or lower
Experimental: Cells (10,000 cells/well, 100 μL) were incubated in a 96-well microtiter plate. After 24 hours of the incubation, drug (100 μL) was added to each of the wells, and the culture was further incubated at 37° C. for 48 hours. The cells were then fixed in TCA (50 μL per well). The plates were incubated at 4° C. for a minimum of 1 hour or a maximum of 3 hours. The liquid was removed from the plates, and then the plate was washed five times with water and then dried at room temperature (RT) for about 12-24 hours. The fixed cells were stained with 100 μL SRB for 5 minutes at room temperature. After the staining, the plate was washed three times with 1% (w/v) glacial acetic acid and dried at room temperature for about 12-24 hours. Next, the SRB was then dissolved in 10 mM Trizma base, and the absorbance was measured at 515 nm. The effect of the drug was expressed as GI50 (50% growth inhibition).
Specifically, each of the LDD3732, LDD3922, and LDD3959 in concentrations of 10^−9, 10^−8, 10^−7, 10^−6, and 10^−5 M were tested, and the percentage decrease in the control value of SRB was measured using an ACHN cancer cell population.

[2] = biological target: T1, guinea pig liver-originated transglutaminase 2 (Cavia cutleri, UniProt P08587); test: In vitro transglutaminase 2 assay (1), [1,4-14C] putrescine incorporation into succinylated casein; format: biochemical; settings: for mean value (scintillation counts) / fold values relative to the mean value of the control: 2 μM; for mean value (scintillation counts): negative control 129.0, control 4147.5, FIG. 1; for fold values relative to the mean value of the control: standard deviations 0.02 and 0.01; for TGase2 enzyme activity inhibitory effect compared with streptonigrin (KN383, positive control): same dose (2 μM)
T1 construct: 1 mU of guinea pig liver-originated transglutaminase 2 (Sigma, St. Louis, MO, USA); purchased Sigma; host or cells: guinea pig liver
T1 sequence (P08587 1-690): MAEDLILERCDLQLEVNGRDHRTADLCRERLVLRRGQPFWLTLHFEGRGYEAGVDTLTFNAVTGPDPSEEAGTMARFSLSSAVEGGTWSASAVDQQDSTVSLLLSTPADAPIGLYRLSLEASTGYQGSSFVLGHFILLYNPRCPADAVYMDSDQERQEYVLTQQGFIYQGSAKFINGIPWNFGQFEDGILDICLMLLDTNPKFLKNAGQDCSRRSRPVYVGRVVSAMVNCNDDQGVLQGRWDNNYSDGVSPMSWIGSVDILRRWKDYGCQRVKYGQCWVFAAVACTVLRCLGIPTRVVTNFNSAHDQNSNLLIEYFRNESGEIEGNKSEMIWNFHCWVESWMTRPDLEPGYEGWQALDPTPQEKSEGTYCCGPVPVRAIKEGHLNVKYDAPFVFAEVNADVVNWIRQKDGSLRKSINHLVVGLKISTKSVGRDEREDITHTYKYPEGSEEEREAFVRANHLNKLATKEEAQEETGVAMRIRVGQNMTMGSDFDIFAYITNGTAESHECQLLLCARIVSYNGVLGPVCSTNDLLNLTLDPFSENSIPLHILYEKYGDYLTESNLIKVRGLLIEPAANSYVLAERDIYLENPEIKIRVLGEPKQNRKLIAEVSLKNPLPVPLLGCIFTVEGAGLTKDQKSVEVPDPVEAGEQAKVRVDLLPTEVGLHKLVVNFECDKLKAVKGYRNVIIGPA
Experimental: Incorporation of [1,4-14C] putrescine into succinylated casein was measured to determine the inhibitory effect of each compound on the activity of transglutaminase 2 (TGase 2). 1 mU of guinea pig liver-originated transglutaminase 2 (Sigma, St. Louis, MO, USA) was preincubated with various concentrations of GK13 or GK921 in a 0.1 mL reaction buffer with or without 10 mM CaCl2 for 10 minutes, and 0.4 mL of a substrate solution containing 2% (w/v) succinylated casein and 100 nCi of [1,4-14C] putrescine. After incubation at 37° C. for 1 hour, 4 mL of cold (4° C.) 7.5% (w/v) trichloroacetic acid (TCA) was added to terminate the reaction. The TCA-insoluble precipitate was recovered with a GF/A-grade glass filter (Millipore, Billerica, MA, USA), washed with cold 5% (w/v) TCA, dried, and assessed with a scintillation counter (Beckman Coulter, Brea, CA, USA) to evaluate radiolabel binding. Transglutaminase 2 which was pre-incubated only with a buffer was used as a positive control. The scintillation counts were compared between the example and the positive control, and IC50 values were determined through the logistic linear regression method. The presented data were the mean values of three independent experiments. In this experimental example and the following experimental example, Streptonigrin (described as KN383 in each figure of the drawing), which is an existing transglutaminase 2 inhibitor, was used as a positive control.

p53 = test: P53 rescue test using western blotting; format: cell-based; settings: low to high concentration, cancer cell lines
Experimental: Whole cell lysates were prepared using a radioimmunoprecipitation assay (RIPA) buffer (150 mM sodium chloride, 1.0% (w/v) IGEPAL® CA-630 (NP-40), 0.5% (w/v) sodium deoxycholate, 0.1% (w/v) sodium dodecyl sulfate (SDS), a protease inhibitor cocktail, and 50 mM Tris-HCl (pH 8.0) containing a phosphatase inhibitor cocktail. Protein assays were performed through Bradford protein assay (Thermo Scientific, Waltham, MA, USA) to normalize protein expression. The proteins were resolved by SDS-PAGE and transferred to polyvinylidene difluoride (PVDF) membranes (Merck Millipore, Burlington, MA, USA). The membranes were blocked with 5% (w/v) BSA for 1 hour at room temperature and incubated overnight at 4° C. with labeled antibodies. Membranes were washed in TBS-T for 1 hour at room temperature and incubated together with a horseradish peroxidase (HRP)-bound secondary antibody for 1 hour at room temperature. Finally, the membranes were washed in TBS-T for 1 hour at room temperature and developed with enhanced chemiluminescence.

MCF7 cells = test: Cell viability in breast cancer cell lines according to concentration; format: cell-based; settings: MCF7, no expression of transglutaminase 2, 72 hours
Experimental: First breast cancer cells (MDA-MB-453, HCC-1806, HCC-1937: 10,000 cells/well, 100 μl) and second breast cancer cells (MDA-MB-231, MCF-7: 10,000 cells/well, 100 μl) were cultured in 96-well microplates.
After 24 hours, LDD3959 […] of various concentrations were added to each well, using a serum-free cell culture medium, and a reaction was allowed to proceed for 2 hours at 37° C. in the presence of 5% CO2. The culture medium was replaced with a culture medium containing 10% FSB, and a reaction was performed for 72 hours.
The existing culture medium was removed, and a new culture medium containing a water soluble tetrazolium salt was added. After that, the plate underwent a reaction at 37° C. in the presence of 5% CO2 for a duration in the range of 1 hour to 3 hours, and then absorbance was measured at 450 nm.

Row | Compound | GI50 ([1]; Homo sapiens) [µM] | SRB measurement (percentage decrease in the control value of SRB) [1] | decrease in cell counts [1] | mean value (scintillation counts) [2] | fold values relative to the mean value of the control [2] | TGase2 enzyme activity inhibitory effect compared with streptonigrin (KN383, positive control) [2] | p53 rescue effect (Western blot band of p53) (p53) | effective concentration for apoptosis (MCF7 cells) | GI50 [1] [µM]
1 | O=C1C(Cl)=C(Cl)C(=O)c2[nH]c(-c3ccc(Br)cc3)nc21 [LDD3922, 2-(4-bromophenyl)-5,6-dichloro-1H-benzo[d]imidazole-4,7-dione] | 5 | 52.25 | no significant decrease in cell counts | 352.5 | 0.08 | two-fold or greater stronger TGase2 enzyme activity inhibitory effects than the control | dose-dependent p53 rescue effects |  | 
2 | COC1=C(N)C(=O)c2nc(-c3nc(C(=O)O)c(C)c(-c4ccc(OC)c(OC)c4O)c3N)ccc2C1=O [streptonigrin, Streptonigrin, reference compound] |  |  |  | 1275.5 |  |  |  | low | 
3 | O=C1C(Cl)=C(Cl)C(=O)c2[nH]c(-c3ccccc3)nc21 [LDD3732, 5,6-dichloro-2-phenyl-1H-benzo[d]imidazole-4.7-dione] |  | −41.43 | no significant decrease in cell counts | 477.5 | 0.12 | two-fold or greater stronger TGase2 enzyme activity inhibitory effects than the control | dose-dependent p53 rescue effects |  | 2.2
